# In ChEMBL document CHEMBL1201862, “PubChem BioAssay data set” (2004):
# “And” between values parts separate entries of the source, which are not always exact repeats. Identical values can stand only once.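 Test compounds were applied to cells in 96-well plates for 48 hours at 5 doses. GI50 = concentration required for 50% inhibition of growth.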 The source made the active and inactive calls. Cut-off read from the data, not from the text of the source: active = GI50 up to about 1.1 µM and inactive = higher.
# What was measured:
# Assay in all cases: growth of human tumour cells (NCI), 48 h
# Hs-578T = test system: Hs-578T
# LOX IMVI = test system: LOX IMVI
# MDA-N = test system: MDA-N
# NCI-H460 = test system: NCI-H460
# NCI-H522 = test system: NCI-H522
# HOP-92 = test system: HOP-92
# SK-MEL-2 = test system: SK-MEL-2
# CAKI-1 = test system: CAKI-1
# A549 = test system: A549
# PC-3 = test system: PC-3
# Malme-3M = test system: Malme-3M
# A498 = test system: A498
# M14 = test system: M14
# OVCAR-8 = test system: OVCAR-8
# NCI/ADR-RES = test system: NCI/ADR-RES
# NCI-H226 = test system: NCI-H226
# CCRF-CEM = test system: CCRF-CEM
Compound,GI50 (Hs-578T),GI50 (LOX IMVI),GI50 (MDA-N),GI50 (NCI-H460),GI50 (NCI-H522),GI50 (HOP-92),GI50 (SK-MEL-2),GI50 (CAKI-1),GI50 (A549),GI50 (PC-3),GI50 (Malme-3M),GI50 (A498),GI50 (M14),GI50 (OVCAR-8),GI50 (NCI/ADR-RES),GI50 (NCI-H226),GI50 (CCRF-CEM)
CCOc1ccccc1-c1nc2c(s1)C(=O)c1ccccc1C2=O,19 µM (inactive),4.37 µM (inactive),2.72 µM (inactive),18.7 µM (inactive),11.8 µM (inactive),12 µM (inactive),15.7 µM (inactive),12.2 µM (inactive),17.1 µM (inactive),12 µM (inactive),3.68 µM (inactive),15.9 µM (inactive),15.7 µM (inactive),–,–,–,–
O=C(/C=C1\Nc2ccc([N+](=O)[O-])cc2N=C1NC12CC3CC(CC(C3)C1)C2)c1ccccc1,3.76 µM (inactive),> 10 µM (inactive),> 10 µM (inactive),> 10 µM (inactive),> 10 µM (inactive),–,> 10 µM (inactive),> 10 µM (inactive),–,> 10 µM (inactive),> 10 µM (inactive),3.85 µM (inactive),> 10 µM (inactive),9.64 µM (inactive),> 10 µM (inactive),5.5 µM (inactive),–
CCOC(=O)c1nc2cc(C(F)(F)F)ccc2nc1Nc1ccc(F)cc1,–,> 100 µM (inactive),> 100 µM (inactive),18.2 µM (inactive),–,10.8 µM (inactive),> 100 µM (inactive),> 100 µM (inactive),18 µM (inactive),32.8 µM (inactive),> 100 µM (inactive),28.6 µM (inactive),49.4 µM (inactive),39 µM (inactive),72.1 µM (inactive),41.1 µM (inactive),19.5 µM (inactive)
CSc1nc2c(c(=O)[nH]1)N=C(c1ccccc1)CC(c1ccccc1)N2 (stereo not given),–,24.8 µM (inactive),20.7 µM (inactive),13.4 µM (inactive),19.2 µM (inactive),41.5 µM (inactive),27.8 µM (inactive),32.1 µM (inactive),32.1 µM (inactive),55.1 µM (inactive),23.4 µM (inactive),83.4 µM (inactive),32.2 µM (inactive),28 µM (inactive),24.4 µM (inactive),39.7 µM (inactive),26.1 µM (inactive)
CC(C)/C(Cl)=N\OC(=O)Nc1cccc(Cl)c1,28.3 µM (inactive),3.72 µM (inactive),14.8 µM (inactive),13.7 µM (inactive),1.66 µM (inactive),–,15.5 µM (inactive),17.7 µM (inactive),18.4 µM (inactive),15.9 µM (inactive),11.6 µM (inactive),17.4 µM (inactive),0.305 µM (active),15.4 µM (inactive),10.6 µM (inactive),20.8 µM (inactive),1.67 µM (inactive)
O=c1[nH]nc(Cc2ccccc2)n1O,> 100 µM (inactive),> 100 µM (inactive),> 100 µM (inactive),–,> 100 µM (inactive),> 100 µM (inactive),> 10 µM (inactive),> 100 µM (inactive),> 100 µM (inactive),–,> 100 µM (inactive),> 100 µM (inactive),–,> 100 µM (inactive),> 100 µM (inactive),> 100 µM (inactive),> 100 µM (inactive)
O=C(/C=C\c1ccccc1-c1ccccc1)c1ccccc1,> 100 µM (inactive),–,> 100 µM (inactive),> 100 µM (inactive),17.9 µM (inactive),> 100 µM (inactive),–,> 100 µM (inactive),3.93 µM (inactive),–,–,> 100 µM (inactive),> 100 µM (inactive),> 100 µM (inactive),> 100 µM (inactive),> 100 µM (inactive),> 100 µM (inactive)
CCOP(=O)(OCC)OC1c2[nH]ccc2-c2cc(C(=O)OC)[nH]c2C1OC (stereo not given),44.2 µM (inactive),> 100 µM (inactive),> 100 µM (inactive),56.8 µM (inactive),> 100 µM (inactive),–,> 100 µM (inactive),70.3 µM (inactive),> 100 µM (inactive),66.8 µM (inactive),> 100 µM (inactive),–,> 100 µM (inactive),> 100 µM (inactive),> 100 µM (inactive),–,> 100 µM (inactive)
c1csc(-c2sc(-c3ccsc3)cc2Cc2ccsc2)c1,–,> 10 µM (inactive),> 10 µM (inactive),–,–,> 10 µM (inactive),–,> 10 µM (inactive),> 10 µM (inactive),> 10 µM (inactive),> 10 µM (inactive),–,> 10 µM (inactive),> 10 µM (inactive),–,–,> 10 µM (inactive)
Cn1c(=O)c2c(ncn2Cc2ccc(O)c([N+](=O)[O-])c2)n(C)c1=O,> 100 µM (inactive),> 100 µM (inactive),> 100 µM (inactive),> 100 µM (inactive),> 100 µM (inactive),–,> 100 µM (inactive),> 100 µM (inactive),> 100 µM (inactive),> 100 µM (inactive),–,> 100 µM (inactive),> 100 µM (inactive),> 100 µM (inactive),> 100 µM (inactive),> 100 µM (inactive),> 100 µM (inactive)
O=CNCCCN1CCN(CCCNC=O)CC1,–,> 100 µM (inactive),> 100 µM (inactive),–,1.6 µM (inactive),> 100 µM (inactive),> 100 µM (inactive),> 100 µM (inactive),> 100 µM (inactive),> 100 µM (inactive),–,> 100 µM (inactive),> 100 µM (inactive),> 100 µM (inactive),> 100 µM (inactive),> 100 µM (inactive),> 100 µM (inactive)
CC1CC/C(=C\c2ccc(F)cc2)C2=C1C(c1ccc(F)cc1)NC(=S)N2 (stereo not given),> 100 µM (inactive),48.2 µM (inactive),67.8 µM (inactive),20.4 µM (inactive),–,–,28.2 µM (inactive),57.8 µM (inactive),–,30 µM (inactive),36.7 µM (inactive),30.5 µM (inactive),50.9 µM (inactive),86.7 µM (inactive),53.6 µM (inactive),46.1 µM (inactive),68.5 µM (inactive)
O=C(NN=C1CCN(Cc2ccccc2)CC1)C(O)(c1ccccc1)c1ccccc1,> 100 µM (inactive),> 100 µM (inactive),–,–,–,> 100 µM (inactive),–,–,> 100 µM (inactive),–,> 100 µM (inactive),–,> 100 µM (inactive),> 100 µM (inactive),> 100 µM (inactive),> 100 µM (inactive),> 100 µM (inactive)
CCC1(c2ccc(OC)c(OC)c2)CCN2C(=O)C(O)CC21 (stereo not given),–,> 100 µM (inactive),> 100 µM (inactive),> 100 µM (inactive),> 100 µM (inactive),–,> 100 µM (inactive),> 100 µM (inactive),> 100 µM (inactive),> 100 µM (inactive),–,–,> 100 µM (inactive),–,> 100 µM (inactive),> 100 µM (inactive),> 100 µM (inactive)
COC(=O)[C@@H]1CC(C(C[N+](=O)[O-])c2ccc(O[Si](C)(C)C(C)(C)C)cc2)C(=O)N1C(=O)OC(C)(C)C (stereo not given in full),> 100 µM (inactive),> 100 µM (inactive),> 100 µM (inactive),–,53.2 µM (inactive) and 60.5 µM (inactive),40.1 µM (inactive) and 61 µM (inactive),> 100 µM (inactive),> 100 µM (inactive) and 90.4 µM (inactive),67.6 µM (inactive) and 37.4 µM (inactive),–,> 100 µM (inactive) and 97.9 µM (inactive),> 100 µM (inactive),52.5 µM (inactive),> 100 µM (inactive),–,–,27.7 µM (inactive) and 18.1 µM (inactive)
O=[N+]([O-])c1cnc(N(CCO)CCO)s1,–,> 100 µM (inactive),> 100 µM (inactive),> 100 µM (inactive),> 100 µM (inactive),> 100 µM (inactive),> 100 µM (inactive),> 100 µM (inactive),> 100 µM (inactive),> 100 µM (inactive),> 100 µM (inactive),> 100 µM (inactive),> 100 µM (inactive),> 100 µM (inactive),> 100 µM (inactive),> 100 µM (inactive),79.6 µM (inactive)
NCCN1CCCCCc2ccccc21,> 10 µM (inactive),> 10 µM (inactive),–,> 10 µM (inactive),> 10 µM (inactive),–,> 10 µM (inactive),> 10 µM (inactive),> 10 µM (inactive),> 10 µM (inactive),> 10 µM (inactive),> 10 µM (inactive),–,> 10 µM (inactive),> 10 µM (inactive),> 10 µM (inactive),> 10 µM (inactive)
CC(C)=CCC/C(C)=C/Cc1c2c(c3oc(-c4ccc(O)c(O)c4)c(O)c(=O)c3c1O)C=CC(C)(C)O2,9.46 µM (inactive),–,5.02 µM (inactive),3.37 µM (inactive),0.916 µM (active),–,6.58 µM (inactive),1.78 µM (inactive),3.87 µM (inactive),5.16 µM (inactive),0.665 µM (active),6.32 µM (inactive),2.8 µM (inactive),2.05 µM (inactive),5.32 µM (inactive),6.22 µM (inactive),1.79 µM (inactive)
CCC(CCCCC1CC[C@H]2CC(=O)C[C@@H]12)OC (stereo not given in full),–,> 100 µM (inactive),–,> 100 µM (inactive),> 100 µM (inactive),> 100 µM (inactive),> 100 µM (inactive),> 100 µM (inactive),> 100 µM (inactive),–,–,> 100 µM (inactive),–,> 100 µM (inactive),71.1 µM (inactive),> 100 µM (inactive),79.8 µM (inactive)
